Source: the NIST ThermoML archive (doi:10.1021/je9002515)
± gives the expanded uncertainty stated by the source.

Experiments:
[1] = 101 kPa, Liquid, Alternating current cell with electrodes
[2] = xn = mol fraction of the nth substance listed; details: 101 kPa, Liquid, Alternating current cell with electrodes, x2 = 0

| Structure (SMILES) | electrical conductivity ([1]; 303.15 K) [S/m] | electrical conductivity ([1]; 313.15 K) [S/m] | electrical conductivity ([1]; 323.15 K) [S/m] | electrical conductivity ([1]; 333.15 K) [S/m] | electrical conductivity ([1]; 343.15 K) [S/m] | electrical conductivity ([1]; 353.15 K) [S/m] | electrical conductivity ([1]; 363.15 K) [S/m] | electrical conductivity ([1]; 373.15 K) [S/m] | electrical conductivity ([1]; 383.15 K) [S/m] | electrical conductivity ([1]; 393.15 K) [S/m] | electrical conductivity ([2]; 303.15 K) [S/m] | electrical conductivity ([2]; 313.15 K) [S/m] | electrical conductivity ([2]; 323.15 K) [S/m] | electrical conductivity ([2]; 333.15 K) [S/m] | electrical conductivity ([2]; 343.15 K) [S/m] | electrical conductivity ([2]; 353.15 K) [S/m] | electrical conductivity ([2]; 363.15 K) [S/m] | electrical conductivity ([2]; 373.15 K) [S/m] | electrical conductivity ([2]; 383.15 K) [S/m] | electrical conductivity ([2]; 393.15 K) [S/m] |
| --- | --- | --- | --- | --- | --- | --- | --- | --- | --- | --- | --- | --- | --- | --- | --- | --- | --- | --- | --- | --- |
| CC(=O)N(C)C [N,N-dimethylethanamide] | 0.0149 ± 0.0024 | 0.0195 ± 0.0031 | 0.024 ± 0.0038 | 0.0307 ± 0.0049 | 0.04 ± 0.0064 | 0.0462 ± 0.0074 | 0.0508 ± 0.0081 | 0.0534 ± 0.0086 | 0.0544 ± 0.0087 | 0.0518 ± 0.0083 |  |  |  |  |  |  |  |  |  |  |
| CC(=O)N(C)C [N,N-dimethylethanamide] + CNC(C)=O |  |  |  |  |  |  |  |  |  |  | 0.0149 ± 0.0024 | 0.0195 ± 0.0031 | 0.024 ± 0.0038 | 0.0307 ± 0.0049 | 0.04 ± 0.0064 | 0.0462 ± 0.0074 | 0.0508 ± 0.0081 | 0.0534 ± 0.0086 | 0.0544 ± 0.0087 | 0.0518 ± 0.0083 |
| CNC(C)=O [N-methylacetamide] | 0.0324 ± 0.0052 | 0.0447 ± 0.0072 | 0.0614 ± 0.0098 | 0.0775 ± 0.012 | 0.105 ± 0.017 | 0.129 ± 0.021 | 0.165 ± 0.026 | 0.192 ± 0.031 | 0.219 ± 0.035 | 0.247 ± 0.04 |  |  |  |  |  |  |  |  |  |  |
